Like-named read-outs stand apart in the source and are kept apart here.
System: mouse cortical neuron cultures

Molecule	% Dead cells (vehicle subtracted)	% Dead cells (vehicle subtracted) (mouse, 24 h, 10 µM)
COc1cc(Cl)c(OC)cc1Cl [Chloroneb]	-0.9422%	–
C=CCC1=C(C)[C@@H](OC(=O)[C@@H]2[C@@H](C=C(C)C)C2(C)C)CC1=O [S-Bioallethrin]	-1.697%	–
CCO/N=C(\CC)C1=C(O)CC(c2c(C)cc(C)cc2C)CC1=O (stereo not drawn) [Tralkoxydim]	4.508%	–
CNC(=O)CSP(=S)(OC)OC [Dimethoate]	-3.6%	–
CNC(=O)/C=C(\C)OP(=O)(OC)OC	-1.862%	–
COc1cc(OC)nc(Sc2cccc(Cl)c2C(=O)O)n1 [Pyrithiobac-sodium]	–	0.5188%
Cc1cc(Cl)ccc1OCC(=O)O [MCPA (Agroxone)]	9.261%	–
Nc1nc(N)nc(NC2CC2)n1 [Cyromazine]	–	-4.3436%
CC(C)N1C(=O)N(c2ccccc2)CS/C1=N\C(C)(C)C [Buprofezin]	–	-1.5902%
C[Si](Cn1cncn1)(c1ccc(F)cc1)c1ccc(F)cc1 [Flusilazole]	–	-0.05737%
Chlorpyrifos oxon	0.8087%	–
CCCCCOC(=O)COc1cc(N2C(=O)C3=C(CCCC3)C2=O)c(F)cc1Cl [Flumiclorac-pentyl]	–	-0.6581%
CN=C=S	3.139%	–
OC(c1ccc(Cl)cc1)(c1cncnc1)c1ccccc1Cl (stereo not drawn) [Fenarimol]	-1.829%	–
O=C(Nc1ccccc1)Nc1ccnc(Cl)c1 [Forchlorfenuron]	0.6006%	–
COC(=O)c1ccccc1S(=O)(=O)NC(=O)N(C)c1nc(C)nc(OC)n1 [Tribenuron-methyl]	–	-1.861%
CCOC(=O)NC(=S)Nc1ccccc1NC(=S)NC(=O)OCC [Thiophanate]	–	-1.666%
C#CCC1=C(C)C(OC(=O)C2C(C=C(C)C)C2(C)C)CC1=O (stereo not drawn) [Prallethrin]	-0.1241%	–
CCOC1Oc2ccc(OS(C)(=O)=O)cc2C1(C)C (stereo not drawn) [Ethofumesate]	-0.3872%	–
N#Cc1c[nH]cc1-c1cccc2c1OC(F)(F)O2 [Fludioxonil]	-2.856%	–
N#C/N=C1\SCCN1Cc1ccc(Cl)nc1 [Thiacloprid]	2.238%	–
COCC(C)N(C(=O)CCl)c1c(C)csc1C (stereo not drawn) [Dimethenamid]	–	-0.353%

Molecule	% Dead cells (vehicle subtracted)	% Dead cells (vehicle subtracted) (mouse, 24 h, 10 µM)
COc1ccc(C(=CC(=O)N2CCOCC2)c2ccc(Cl)cc2)cc1OC [Dimethomorph]	–	-1.666%
COc1cccc(C(=O)NN(C(=O)c2cc(C)cc(C)c2)C(C)(C)C)c1C [Methoxyfenozide]	0.2717%	–
CCCCOCCOCCOCc1cc2c(cc1CCC)OCO2 [Piperonyl butoxide]	–	-3.535%
O=P(O)(O)CCCl [Ethephon]	–	-0.1299%
CCC(C)(C)C(=O)OC1=C(c2ccc(Cl)cc2Cl)C(=O)OC12CCCCC2 [Spirodiclofen]	1.699%	–
CCOC(=O)CC(SP(=S)(OC)OC)C(=O)OCC (stereo not drawn) [Malathion]	-1.492%	–
COP(=S)(OC)Oc1ccc([N+](=O)[O-])c(C)c1 [Fenitrothion]	-1.338%	–
Oc1ccc(Cl)cc1Cc1ccccc1 [Clorophene]	2.359%	–
CC(C)(C)C(O)C(Oc1ccc(Cl)cc1)n1cncn1 (stereo not drawn) [Triadimenol]	–	2.51%
CC(COc1ccc(Oc2ccccc2)cc1)Oc1ccccn1 (stereo not drawn) [Pyriproxyfen]	–	1.128%
CNC(=O)Oc1cccc2c1OC(C)(C)O2 [Bendiocarb]	9.256%	–
O=C1c2ccccc2C(=O)N1SC(Cl)(Cl)Cl [Folpet]	–	-1.248%
CCNc1nc(Cl)nc(NC(C)(C)C#N)n1 [Cyanazine]	0.5036%	–
CCOC(=O)COc1cc(-c2nn(C)c(OC(F)F)c2Cl)c(F)cc1Cl [Pyraflufen-ethyl]	-2.144%	–
Cl[C@H]1[C@H](Cl)[C@@H](Cl)[C@@H](Cl)[C@H](Cl)[C@H]1Cl [Lindane]	3.537%	–
CCOP(=O)(SC(C)CC)N1CCSC1=O (stereo not drawn) [Fosthiazate]	-0.4742%	–
CCCOC(=O)c1ccc(C(=O)OCCC)nc1	-2.999%	–
COC(=O)c1c(C(F)F)nc(C(F)(F)F)c(C2=NCCS2)c1CC(C)C [Thiazopyr]	1.196%	–
CN(C)C(=O)Nc1cccc(C(F)(F)F)c1 [Fluometuron]	–	0.2278%
Nc1c(Cl)cc([N+](=O)[O-])cc1Cl [Dicloran]	-0.1169%	–
CCOC(=O)C(C)Oc1ccc(Oc2cnc3cc(Cl)ccc3n2)cc1 (stereo not drawn) [Quizalofop-ethyl]	–	-4.709%
CCN(CC)C(=O)SCc1ccc(Cl)cc1 [Thiobencarb]	–	-1.522%

Molecule	% Dead cells (vehicle subtracted)	% Dead cells (vehicle subtracted) (mouse, 24 h, 10 µM)
Cc1ccc(/N=C/N(C)/C=N/c2ccc(C)cc2C)c(C)c1 [Amitraz]	0.3334%	–
CCC(C)Nc1c([N+](=O)[O-])cc(C(C)(C)C)cc1[N+](=O)[O-] (stereo not drawn) [Butralin]	–	4.6194%
CCNc1nc(N)nc(Cl)n1	1.813%	–
Oc1cc(Cl)ccc1Oc1ccc(Cl)cc1Cl [Triclosan]	0.6048%	–
O=C(O)CCCOc1ccc(Cl)cc1Cl	-0.3394%	–
Cc1nc(N(C)C)nc(OC(=O)N(C)C)c1C [Pirimicarb]	-1.736%	–
CC(C)N(C(=O)SCC(Cl)=C(Cl)Cl)C(C)C [Tri-allate]	1.844%	–
OCCOc1ccccc1 [Phenoxyethanol [2-Phenoxyethanol]]	4.907%	–
Nc1c(Cl)c(Cl)nc(C(=O)O)c1Cl [Picloram]	3.752%	–
CCNc1nc(NC(C)C)nc(SC)n1 [Ametryn]	–	0.09019%
Cc1[nH]c(=O)n(C(C)(C)C)c(=O)c1Cl [Terbacil]	–	6.548%
O=c1ccc(=O)[nH][nH]1 [Maleic hydrazide]	7.215%	–
CC1(C)C(C=C(Cl)Cl)C1C(=O)OCc1cccc(Oc2ccccc2)c1 (stereo not drawn) [Permethrin]	-0.7739%	–
CC(C)Oc1cc(-n2nc(C(C)(C)C)oc2=O)c(Cl)cc1Cl [Oxadiazon]	–	5.6039%
CC1(C)CON(Cc2ccccc2Cl)C1=O [Clomazone]	-3.452%	–
CCN(CC)C(=O)C(C)Oc1cccc2ccccc12 (stereo not drawn) [Napropamide]	–	-2.444%
CCCCC(CC)COC(=O)c1ccccc1C(=O)OCC(CC)CCCC (stereo not drawn) [Diethylhexyl phthalate (DEHP)]	-0.2848%	–
COc1nn(CSP(=S)(OC)OC)c(=O)s1 [Methidathion]	0.1761%	–
COP(=S)(OC)Oc1nc(Cl)c(Cl)cc1Cl [Chlorpyrifos-methyl]	-0.3201%	–
COCc1cnc(C2=NC(C)(C(C)C)C(=O)N2)c(C(=O)O)c1 (stereo not drawn) [Imazamox]	-0.1553%	–
CC1COC(Cn2cncn2)(c2ccc(Oc3ccc(Cl)cc3)cc2Cl)O1 (stereo not drawn) [Difenoconazole]	-2.028%	–
O=C(O)C(F)(F)C(F)(F)C(F)(F)C(F)(F)C(F)(F)C(F)(F)C(F)(F)F	-2.482%	–

Reference: paper PMC4821887, “Identification of chemicals that mimic transcriptional changes associated with autism, brain aging and neurodegeneration” (Nature Communications, 2016)
